Results as given in patent US11540987B2, “Composition with stabilized taste and odor (II)” (SYMRISE AG, priority 2015, dated 2023).

Assay: ABTS-assay, inhibition of radical formation
Assay type: biochemical
Details: for IC50: absorption at 734 nm, mean value from at least 2 independent tests
Description: By means of the ABTS-assay the anti-oxidative capacity of 4-hydroxyacetophenone and alpha-tocopherol was compared. 2,2′-azino bis-(3-ethylbenzothiazoline 6-sulfonic acid) (ABTS) was transformed by potassium persulfate into the blue-green radical cation ABTS•^+. Through the addition of 4-hydroxyacetophenone and alpha-tocopherol the radical cations were reduced and discoloration was observed, which was determined photometrically by Absorption at 734 nm. The inhibition of the radical formation of the test substance is calculated by the following formula:
[formula] Wherein the abbreviations have the following meanings: • Atest substance: Absorption of the wells with test substance including 4-hydroxyacetophenone and alpha-tocopherol • Acontrol: Absorption of the wells without test substance
From the inhibition of the radical formation [%] in a series of dilutions of tested samples the IC50 was calculated. This is the concentration at which the radical formation is inhibited by 50%.

| SMILES | fold higher IC50 value than alpha-tocopherol | IC50 | antioxidant activity compared with alpha-tocopherol (in words) |
| --- | --- | --- | --- |
| CC(=O)c1ccc(O)cc1 [4-hydroxyacetophenone] | 10 fold | 262 µM | much weaker antioxidant activity |
| Cc1c(C)c2c(c(C)c1O)CC[C@@](C)(CCC[C@H](C)CCC[C@H](C)CCCC(C)C)O2 [alpha-tocopherol, reference compound] |  | 26.8 µM |  |
